Experimental findings from ChEMBL document CHEMBL1128784, “Symmetry-based HIV Protease inhibitors: rational design of 2-methylbenzamides as novel P2/P2 ligands” (Bioorg Med Chem Lett, 1995) are described below.

The target of this assay is Human immunodeficiency virus type 1 protease (Human immunodeficiency virus 1, UniProt Q72874). The assay can be described thus: Inhibitory activity against HIV protease.

Molecules are shown by their SMILES.

On to `Cc1ccc(O)cc1C(=O)N[C@@H](Cc1ccccc1)[C@H](O)[C@H](O)[C@H](Cc1ccccc1)NC(=O)c1cc(O)ccc1C`, for which the Ki (commonly a measure of affinity in units of concentration, obtained from inhibition or displacement) was 74 nM.
Regarding `Cc1c(N)cccc1C(=O)N[C@@H](Cc1ccccc1)[C@H](O)[C@H](O)[C@H](Cc1ccccc1)NC(=O)c1cccc(N)c1C`, the Ki was 2.5 nM.
